Test results reported in PubChem BioAssay AID1963875 (Molecular Pharmacology Branch, DTP, NCI, 2024).

System: KRAS-mutant PDC complex spheroid viability
Test: Anticancer human tumor 186277-243-T-J2-PDC patient-derived colon adenocarcinoma cell line growth inhibition [KRAS2]
Conditions: for IC50: curve of first compound; for viability, T/C: stronger effect = lower value
Description: Multicellular complex tumor spheroid response to RAS pathway inhibitors in combination with a targeted agents in patient-derived cell lines with oncogenic KRAS variants from multiple cancer types
A high-throughput screen of multi-cell type tumor spheroids was designed to identify active combinations of targeted small molecules and KRAS pathway inhibitors. Complex spheroids include a stromal component modeled by human endothelial cells (HUVEC) and fibroblasts modeled by human mesenchymal stem cells (MSCs). The concentration ranges selected for each drug and investigational agent were based upon clinically achievable concentrations if the clinical Cmax of the agent was known.
Compounds. The drugs and investigational agents: BI-3406 (NSC825286), BAY-293 (NSC824723), batoprotafib (TNO155; NSC825523), sotorasib (AMG 510; NSC818433), MRTX1257 (NSC819558), elimusertib (BAY 1895344; NSC800525), molibresib (GSK525762; NSC774829), temuterkib (LY3214996; NSC803410), venetoclax (NSC766270), alisertib (NSC759677), olaparib (NSC753686), talazoparib (NSC767125), erdafitinib (NSC781556), ipatasertib (NSC767898), cabozantinib (NSC761068), nintedanib (NSC756659), abemaciclib (NSC768073), docetaxel (NSC628503), trametinib (NSC758246), and sapanisertib (NSC764658) were obtained from the National Cancer Institute (NCI) Developmental Therapeutics Program Chemical Repository. The FDA-approved anticancer drug set is available from the Developmental Therapeutics Program. […] The stock solutions were prepared in dimethyl sulfoxide (DMSO, Sigma-Aldrich, St. Louis, MO, cat. D2650) at 800-fold the tested concentration and stored at -70 degrees C prior to their use. All drugs and investigational agents were tested over a range starting from a high concentration at or near the clinical Cmax and decreasing in half-log increments. If the clinical Cmax for an agent had not been determined, the highest concentration tested was 10 microM.
Cell Culture. All cells were maintained in an incubator at 37 degrees C and 5% CO2 with 95% humidity. The PDC lines were cultured according to standard operating procedures established by the NCI PDMR (https://pdmr.cancer.gov/sops/default.htm). Briefly, all PDCs were thawed and cultured in Matrigel-coated flasks prepared with a working solution of 1X Ham's F-12 nutrient mix, without supplementation (Invitrogen, Waltham, MA, cat. 11765054), 100 U/mL penicillin-streptomycin (Invitrogen, cat. 15140122), and 2.5% Matrigel (Corning Inc., Corning, NY, cat. 354248) for the first three passages. All PDCs were cultured in complete DMEM/F-12 media containing advanced DMEM/F-12 (Invitrogen, cat. 12634028), 4.9% defined fetal bovine serum, heat inactivated (HyClone Laboratories Inc., Logan, UT, cat. SH30070.03HI), 389 ng/mL hydrocortisone (Sigma-Aldrich, cat. H4001), 9.7 ng/mL human EGF recombinant protein (Invitrogen, cat. PHG0313), 23.4 microg/mL adenine (Sigma-Aldrich, cat. A2786), 97.3 U/mL penicillin-streptomycin (Invitrogen, cat. 15140122), 1.9 mM L-glutamine (Invitrogen, cat. 25030081), and 9.7 microM Y-27632 dihydrochloride (Tocris Bioscience, Bristol, United Kingdom, cat. 1254). The PDCs were cultured in complete DMEM/F12 media without 9.7 microM Y-27632 dihydrochloride for at least two passages prior to the screen. The established cell line HOP-62 was cultured in RPMI 1640 medium, HEPES (Invitrogen, cat. 22400105) with 10% defined fetal bovine serum (HyClone Laboratories Inc., cat. SH30070.03) and 2 mM L-glutamine (Invitrogen, cat. 25030081). The pooled donor HUVEC were cultured in endothelial cell growth medium 2 (PromoCell, Heidelberg, Germany, cat. C-22011) and the hMSC were cultured in mesenchymal stem cell growth medium 2 (PromoCell, cat. C-28009). For all experiments, HUVEC and hMSC were used at passages </=5, while the malignant cell lines were used at passages </=15. […]
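For viability, T/C in this document: viability read after seven days of compound exposure; 100% = DMSO vehicle-treated spheroids so lower means less viable.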

## CC1OCC2(CCN(c3cnc(Sc4ccnc(N)c4Cl)c(N)n3)CC2)C1N (stereo not given) + C=CC(=O)N1CCN(c2nc(OCC3CCCN3C)nc3c2CCN(c2cccc4cccc(C)c24)C3)CC1CC#N
Second compound 0.0316 µM
  IC50: > 10 µM
Second compound 0.1 µM
  IC50: > 10 µM
Second compound 0.316 µM
  IC50: > 10 µM
Second compound 1 µM
  IC50: > 10 µM
Second compound 3.16 µM
  IC50: < 0.0316 µM
Second compound 0.0316 µM, first compound 0.0316 µM
  viability, T/C: 111%
Second compound 0.0316 µM, first compound 0.1 µM
  viability, T/C: 101%
Second compound 0.0316 µM, first compound 0.316 µM
  viability, T/C: 108%
Second compound 0.0316 µM, first compound 1 µM
  viability, T/C: 101%
Second compound 0.0316 µM, first compound 3.16 µM
  viability, T/C: 102%
Second compound 0.0316 µM, first compound 10 µM
  viability, T/C: 116%
Second compound 0.1 µM, first compound 0.0316 µM
  viability, T/C: 108%
Second compound 0.1 µM, first compound 0.1 µM
  viability, T/C: 112%
Second compound 0.1 µM, first compound 0.316 µM
  viability, T/C: 110%
Second compound 0.1 µM, first compound 1 µM
  viability, T/C: 103%
Second compound 0.1 µM, first compound 3.16 µM
  viability, T/C: 104%
Second compound 0.1 µM, first compound 10 µM
  viability, T/C: 110%
Second compound 0.316 µM, first compound 0.0316 µM
  viability, T/C: 113%
Second compound 0.316 µM, first compound 0.1 µM
  viability, T/C: 111%
Second compound 0.316 µM, first compound 0.316 µM
  viability, T/C: 102%
Second compound 0.316 µM, first compound 1 µM
  viability, T/C: 110%
Second compound 0.316 µM, first compound 3.16 µM
  viability, T/C: 102%
Second compound 0.316 µM, first compound 10 µM
  viability, T/C: 116%
Second compound 1 µM, first compound 0.0316 µM
  viability, T/C: 102%
Second compound 1 µM, first compound 0.1 µM
  viability, T/C: 99.9%
Second compound 1 µM, first compound 0.316 µM
  viability, T/C: 101%
Second compound 1 µM, first compound 1 µM
  viability, T/C: 107%
Second compound 1 µM, first compound 3.16 µM
  viability, T/C: 118%
Second compound 1 µM, first compound 10 µM
  viability, T/C: 88.5%
Second compound 3.16 µM, first compound 0.0316 µM
  viability, T/C: 1.51%
Second compound 3.16 µM, first compound 0.1 µM
  viability, T/C: 10%
Second compound 3.16 µM, first compound 0.316 µM
  viability, T/C: 0.47%
Second compound 3.16 µM, first compound 1 µM
  viability, T/C: 0.22%
Second compound 3.16 µM, first compound 3.16 µM
  viability, T/C: 0.3%
Second compound 3.16 µM, first compound 10 µM
  viability, T/C: 1.11%
